Measurements: patent US6013672A, “Agonists of metabotropic glutamate receptors and uses thereof” (UAB Research Foundation, priority 1997, dated 2000)
Like-named read-outs stand apart in the source and are kept apart here.

How the values were obtained:
[1] = system: hippocampal astrocytes; assay: Extracellular glutamate [Glu]o released by astrocyte cultures (bioluminescence); format: cell-based, rat; conditions: for order of potency in mimicking ACPD effect on glutamate release: FIG. 7B; for effect on [Glu]o / glutamate release: cells treated for 24 hours, then MEM; for antagonism of ACPD effects on [Glu]o: applied simultaneously with ACPD; for antagonism of the effect of L-CCG-I on [Glu]o: data not shown; for effect on [Glu]o when Na+ gradient is disrupted: 1.0 mM Ouabain, 1.0/5.0 mM L-AA, 30 minute treatment
[2] = system: glial cells; assay: Glial glutamate uptake and extracellular glutamate with MPTP/MPP+ and t-ACPD; format: cell-based; conditions: for elevations of extracellular glutamate levels: glial cells
Procedure: The normally low glutamate levels in the brain are established and maintained in glial cells by non-vesicular uptake of glutamate through a Na^+ -dependent transporter (FIG. 14). Once taken up, glutamate can be converted to glutamine and recycled for neurotransmitter synthesis in neurons (FIG. 14). If glial cells in culture are exposed to high glutamate concentrations (e.g., 100 μM), they will remove it from the extracellular space and essentially "detoxify" the neuronal environment. […] Under those conditions, extracellular glutamate levels are elevated to 7 μM (FIG. 16), which is toxic to most surrounding neurons.
Impaired glial glutamate transport may contribute to the loss of dopaminergic neurons in Parkinson's disease. Thus, stimulation of this pathway would be neuroprotective. A drug and its receptor on glial cells was identified that allows enhanced glutamate detoxification. Specifically, trans-ACPD (trans-1-amino-1,3-cyclopentane dicarboxylic acid) (t-ACPD), a group II metabotropic glutamate receptor agonist, enhanced glial glutamate uptake (FIG. 17). It's actions were 2-fold; (i) it enhanced glutamate uptake by up to 80%, and (ii) it decreased non-specific release of glutamate, effectively trapping glutamate inside glial cells. In fact, the release of glutamate decreased to such a large extent that it almost made the transporter rectify, e.g. allowing only influx and preventing outflow of glutamate (FIG. 18). […] Using antibodies and further pharmacological studies, the receptor that is responsible for these effects has been identified as mGluR2/3.
In Parkinson's disease, it is believed that neurons may die of excitotoxic exposure to glutamate. The present invention determined that MPTP directly effects glutamate uptake into astrocytes (FIG. 21, top left). […] This increased release may be sufficient to explain some of the subsequent neurodegeneration.

[3] = system: hippocampal astrocytes; assay: Intracellular glutamate content [Glu]i of astrocytes; format: cell-based, rat; conditions: 70 minutes incubation with 500 μM
Procedure: For experiments in which [Glu]o concentrations were assessed by the bioluminescence method, cells were maintained in glutamate-depleted medium in the presence or absence of the agonists/antagonist combination of interest. […] After the incubation period, the stimulation media (containing drugs of interest) were aspirated and cells were washed twice with MEM and allowed to remain for 30 to 60 minutes in drug free MEM supplemented with 20 mM glucose prior to taking media samples for glutamate measurements. To assess acute drug effects, untreated cells were washed and the reagent of interest applied in glucose supplemented MEM. Cells were harvested in 0.3 N NaOH and neutralized with 0.3 N HCl. Aliquots were stored in -20° C. for protein and [Glu]i determination. Glutamate standards used for calibration were prepared in MEM (For [Glu]i in 0.15 N NaCl).

[4] = system: hippocampal astrocytes; assay: 3H-D-aspartate (glutamate/aspartate) uptake in astrocytes; format: cell-based, rat; conditions: for effect on aspartate uptake: KA or NMDA 1 mM, 24 hours
Procedure: Uptake procedures were essentially identical to those previously described (Kimelberg et al. 1989; Ye et al., 1996). Briefly, 5-10 minutes before assessing uptake, astrocytes were washed and kept in a solution containing (in mM): NaCl 122, KCl 3, MgSO4 0.4, KH2 PO4 1.2, NaHCO3 25, D-glucose 10, and CaCl2 1.3, at 37° C., bubbled with 5%/95% CO2 /O2. Then the cells were switched to the above solution supplemented with 0.1 mM D-aspartate and 0.4 μCi/ml ^3 H-D-aspartate. Glutamate/aspartate uptake was determined over a 10 or 30 minutes period and was terminated by three quick washes, twice with ice cold 0.29 M sucrose solution with 10 mM Tris Nitrate, 0.5 mM Ca(NO3)2, (pH 7.40 by NaOH) and then with ice cold PBS. Cells were then harvested after a 30 minute incubation in 0.3 N NaOH solution (37° C.) and ^3 H activity was determined in a liquid scintillation counter (Beckman). Total uptake was normalized to protein content to eliminate variability due to cell number. Protein levels were determined using the bicinchoninic acid (BCA) assay (Pierce; Rockford, Ill.).

[5] = system: dopaminergic neurons; assay: Cell death of dopaminergic neurons induced by glutamate or MPTP; format: cell-based, rat; conditions: 0.2 mM
Procedure: Cell death of dopaminergic neurons induced by glutamate, and the role of glial glutamate transport in protection of cell death at the cellular level were studied as it relates to Parkinson's disease. […] Thus, glutamate concentrations as low as 3-5 μM induced rapid cell death (FIGS. 11 and 12). Glutamate concentrations were also measured in the normal brain. They are typically around 1 μM, below the toxic level for dopaminergic neurons. […] This late onset of glutamate toxicity is compatible with the late onset of Parkinson's disease.

[6] = co-incubation, Forskolin 10 μM, Db-cAMP 0.2 mM

pertussis toxin
inhibition of ACPD modulation of [Glu]o ([1]; 0.01-500 ng/ml added 6 hours prior to ACPD): failed to inhibit ACPD modulation | reversal of ACPD modulation of [Glu]o ([1]; applied after ACPD had been washed off): failed to reverse the modulatory effects of ACPD

N[C@@H](Cn1oc(=O)[nH]c1=O)C(=O)O [QA, Quisqualic acid]
order of potency in mimicking ACPD effect on glutamate release [1]: S-4CPG>1S3R-ACPD>L-CCG-I>1S3S-ACPD=QA | effect on [Glu]o / glutamate release [1]: reduce [Glu]o in a dose-dependent manner

C[C@@](N)(C(=O)O)c1ccc(C(=O)O)cc1 [MCPG, (S)-α-methyl-4-carboxyphenylglycine]
antagonism of ACPD effects on [Glu]o [1]: unable to suppress ACPD effects on [Glu]o | antagonism of the effect of L-CCG-I on [Glu]o [1]: failed to inhibit the effect of other mGluR agonists

C[n+]1ccc(-c2ccccc2)cc1 [MPP^+, 1-methyl-4-phenylpyridinium]
extracellular glutamate levels elevated to [2]: 7 µM | elevations of extracellular glutamate levels [2]: up to 5 fold

N[C@H](C(=O)O)c1cc(O)cc(O)c1 [DHPG, (S)-3,5-dihydroxyphenylglycine]
effect on [Glu]o / glutamate release [1]: ineffective

N[C@H](C(=O)O)c1ccc(C(=O)O)cc1 [S-4CPG, (S)-4-carboxyphenylglycine]
order of potency in mimicking ACPD effect on glutamate release [1]: S-4CPG>1S3R-ACPD>L-CCG-I>1S3S-ACPD=QA | effect on [Glu]o / glutamate release [1]: reduce [Glu]o in a dose-dependent manner

cholera toxin
effect on ACPD effects on [Glu]o [1]: neither inhibited nor mimicked ACPD effects

CCCC(=O)Nc1ncnc2c1ncn2[C@@H]1O[C@@H]2COP(=O)(O)O[C@H]2[C@H]1OC(=O)CCC [Db-cAMP, Dibutylyl-cAMP]
effect on ACPD effects on [Glu]o [1, 6]: neither blocked nor facilitated the ACPD effects on [Glu]o | effect on [Glu]o alone ([1]; up to highest concentration tested, 3 mM): did not significantly change [Glu]o

O=C(O)[C@@H]1CN[C@@H](C(=O)O)C1 (relative stereo) [PDC, 1-trans-pyrrolidine-2,4,-dicarboxylate]
cellular glutamate content [3]: 102.9±12.1 % of control

N[C@@]1(C(=O)O)CC[C@H](C(=O)O)C1 [1S3S-ACPD, (1S,3S)-1-aminocyclopentane-1,3-dicarboxylic acid]
order of potency in mimicking ACPD effect on glutamate release [1]: S-4CPG>1S3R-ACPD>L-CCG-I>1S3S-ACPD=QA | effect on [Glu]o / glutamate release [1]: reduce [Glu]o in a dose-dependent manner

N[C@@H](CS(=O)O)C(=O)O [L-CSA, L-cystein-sulfinic acid]
effect on [Glu]o / glutamate release [1]: ineffective

C[C@@](N)(C(=O)O)[C@H]1C[C@@H]1C(=O)O [MCCG, (2S,3S,4S)-2-methyl-2-(carboxycyclopropyl)glycine]
antagonism of ACPD effects on [Glu]o [1]: unable to suppress ACPD effects on [Glu]o | antagonism of the effect of L-CCG-I on [Glu]o [1]: failed to inhibit the effect of other mGluR agonists

N[C@@]1(C(=O)O)CC[C@@H](C(=O)O)C1 [ACPD]
persistence of effects (FIG. 6 Off curve) [1]: over 10 hours | preincubation time for maximal effect (FIG. 6 On curve) [1]: > 6 h | effect remaining after washout ([1]; 10 hours after ACPD had been washed off): 50% | time for effect to return to control levels after washout ([1]; 24 hours treatment, then ACPD free glutamate-depleted medium): about 20 hours | reduction in the steady-state [Glu]o ([1]; astrocytes cultured from animals >P10, on average): ≈ 5 fold | reduction in the steady-state [Glu]o ([1]; astrocytes cultured from younger animals): 30-50% | ACPD modulation of [Glu]o under disrupted Na+ gradient ([1]; low Na+/high K+, Ouabain or L-AA): failed to modulate [Glu]o | dose required for enhancement of uptake [4]: ≈ 500 μM | acute effect on uptake ([4]; acute application of up to 3 hours): ineffective in enhancing uptake | enhancement of uptake ([4]; astrocytes from animals >P9, n=11): 35.2%±3.8% | enhancement of uptake ([4]; astrocytes from neonatal rat pups, n=14): 24.5%±2.4% | enhancement of uptake by region ([4]; hippocampal and spinal cord astrocytes): significant enhancement of uptake

C=C(C)[C@H]1CN[C@H](C(=O)O)[C@H]1CC(=O)O [KA]
effect on [Glu]o / glutamate release [1]: ineffective | effect on aspartate uptake [4]: No significant effects

N[C@H](C(=O)O)[C@H](O)C(=O)O (relative stereo) [THA, DL-threo-β-hydroxyaspartate]
glutamate release induced by transportable uptake inhibitor ([1]; 5-2000 μM in glutamate free MEM, 25 and 70 minutes): increased glutamate release from astrocytes in a dose- and time-dependent manner | minimal effective concentration ([1]; Rattus norvegicus, Astrocyte, glutamate free MEM, read-out: concentration giving significant increases in glutamate release): > 100 µM | activity at 500 µM ([3]; Rattus norvegicus, Astrocyte, 70 min, read-out: cellular glutamate content): 110 ± 14.7%

CN1CC=C(c2ccccc2)CC1 [MPTP, 1-methyl-4-phenyl-1-1,2,3,6-tetrahydropyridine]
neuronal cell death [5]: wide-spread cell death within less than 24 hours | ability of glial cells to detoxify glutamate [2]: compromised in a dose dependent manner | extracellular glutamate levels elevated to [2]: 7 µM | elevations of extracellular glutamate levels [2]: up to 5 fold

N[C@@H](CCP(=O)(O)O)C(=O)O [L-AP4, L(+)-2-amino-4-phosphonobutyric acid]
effect on [Glu]o / glutamate release [1]: ineffective

N[C@H](C(=O)O)[C@H]1C[C@@H]1C(=O)O [L-CCG-I, (2S,3S,4S)-2-(carboxycyclopropyl) glycine]
order of potency in mimicking ACPD effect on glutamate release [1]: S-4CPG>1S3R-ACPD>L-CCG-I>1S3S-ACPD=QA | effect on [Glu]o / glutamate release [1]: reduce [Glu]o in a dose-dependent manner

CC[C@](N)(CCC(=O)O)C(=O)O [EGLU, (2S)-α-Ethylglutamic acid]
antagonism of ACPD effects on [Glu]o [1]: unable to suppress ACPD effects on [Glu]o | antagonism of the effect of L-CCG-I on [Glu]o [1]: failed to inhibit the effect of other mGluR agonists

C[C@@H]1C[C@@H]([C@H](O)CC2CC(=O)NC(=O)C2)C(=O)[C@@H](C)C1 [cycloheximade, cycloheximide]
effect on ACPD induced attenuation of [Glu]o ([1]; 2 μg/ml): could not inhibit the ACPD induced attenuation of [Giu]o

C[C@@H]1O[C@@H](O[C@H]2C[C@@H](O)[C@]3(CO)[C@H]4[C@H](O)C[C@]5(C)[C@@H](C6=CC(=O)OC6)CC[C@]5(O)[C@@H]4CC[C@]3(O)C2)[C@H](O)[C@H](O)[C@H]1O [Ouabain]
effect on [Glu]o when Na+ gradient is disrupted [1]: elevated [Glu]o

N[C@@H](CCCC(=O)O)C(=O)O [L-AA, L-aminoadipic acid]
effect on [Glu]o when Na+ gradient is disrupted [1]: elevated [Glu]o

CN[C@H](CC(=O)O)C(=O)O [NMDA]
effect on [Glu]o / glutamate release [1]: ineffective | effect on aspartate uptake [4]: No significant effects

C=C[C@@]1(C)CC(=O)[C@]2(O)[C@@]3(C)[C@@H](O)CCC(C)(C)[C@@H]3[C@H](O)[C@H](OC(C)=O)[C@@]2(C)O1 [Forskolin]
effect on ACPD effects on [Glu]o [1, 6]: neither blocked nor facilitated the ACPD effects on [Glu]o
